The results in this text go back to PubChem BioAssay (NCI).

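48-hour exposure; five concentrations; linearly interpolated endpoints. Here, GI50 denotes the concentration required for 50% inhibition of growth. Definition used: TGI = concentration required for complete inhibition of growth.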

Holding throughout (experiment): growth of human tumour cells (NCI), 48 h
For assay [1], the system named is ACHN renal.
Assay [2] relates to HCC-2998 colon.
Assay [3] has as its system IGROV1 ovarian.
Assay [4] deals with K-562 leukemia.
In assay [5] the test system is NCI-H23 lung.
The subject of assay [6] is NCI-H522 lung.
In assay [7] the test system is U251 CNS.
Assay [8] deals with UACC-62 melanoma.
The subject of assay [9] is UO-31 renal.

As for `CCCCCCCCCCNC(=S)OC`, the TGI is above 100 µM in [1]; above 100 µM in assay [2]; above 100 µM in [3]; above 100 µM in [4]; above 100 µM in assay [5]; 58.7 µM in assay [6]. For the same molecule, the TGI in assay [7] is above 100 µM; in assay [8], 65 µM; in assay [9], 85.8 µM.

For `CCCCCCCCCCCCCCCCCC1=NC(C)(C)CN1C(C)(C)CO`, the GI50 was 1.53 µM in [1]; 1.2 µM in assay [2]; 1.08 µM in assay [3]; 1.11 µM in [4]; 1.52 µM in assay [5]; 1.63 µM in [6]. The GI50 was 1.42 µM in assay [7], 1.79 µM in assay [8] and 1.42 µM in assay [9]. Also, the TGI in assay [1] came out at 3.05 µM; in [2], 2.5 µM; in assay [3] it was 2.6 µM; in assay [4], 4.05 µM; in assay [5] it was 2.99 µM; in [6] it was 3.25 µM. Besides, the TGI in [7] worked out at 3.03 µM; in assay [8], 3.46 µM; in assay [9] it was 3.43 µM.

For `Cn1nc(-c2ccccc2)c2c(/C=C/c3ccc(F)cc3)onc2c1=O`, the TGI in assay [1] is above 100 µM; in [3], above 100 µM; in [4], above 100 µM; in [5], above 100 µM; in [6], 51.1 µM; in assay [7], above 100 µM. Moreover, the TGI in assay [8] and in assay [9] was above 100 µM in each case.

On to `Cc1cc2[nH]c(=O)c3c4ncccc4cn3c2cc1C`, for which the GI50 is 2.44 µM in assay [1]; 2.59 µM in assay [2]; 2.75 µM in [3]; 2.54 µM in assay [4]; 8.86 µM in assay [5]; 2.67 µM in assay [7]. Further, the GI50 is 2.06 µM in assay [8] and 1.68 µM in assay [9]. Also, the TGI is above 100 µM in assay [1]; 7.97 µM in assay [2]; above 100 µM in assay [3]; above 100 µM in assay [4]; above 100 µM in assay [5]; 9.18 µM in assay [7]. For the same molecule, the TGI came to 4.33 µM in assay [8] and 4.58 µM in assay [9].

As to `CC(=O)O[C@H]1CC[C@@]2(C)C(=CC[C@H]3C(CC#N)[C@@](C)(C#N)CCC32)C1` (stereo not given in full), the TGI in assay [1], in assay [2], in assay [3], in assay [4], in [5] and in assay [7] was above 100 µM in each case. Further, the TGI in [8] and in assay [9] was above 100 µM each time.

For `COc1cccc(/C=C2\N=C(Cl)OC2=O)c1O`, the TGI in [1], in assay [2], in [3], in assay [4], in assay [5] and in assay [6] was above 100 µM each time. Also, the TGI in assay [7], in assay [8] and in [9] was above 100 µM throughout.

With `Cn1c(=O)nc2n(-c3ccc(F)c(F)c3)c3ccccc3nc-2c1=O`, the TGI is 37.2 µM in [1]; 23.7 µM in assay [2]; 41.4 µM in [3]; 41.2 µM in [4]; 29.9 µM in assay [5]; 25.8 µM in assay [6]. Besides, the TGI in [7] was 36.2 µM; in assay [8], 5.47 µM; in assay [9] it was above 100 µM.

For the molecule `CCCC(=O)Oc1ccc(/C=N/NC(N)=S)nc1`, the TGI in [1], in [2], in assay [3], in [4], in assay [5] and in [6] was above 100 µM in each case. In addition, the TGI in assay [7], in assay [8] and in [9] was above 100 µM each time.

On to `Clc1ccc(-c2nnc(-c3nn(-c4ccccc4)c4nc5ccccc5nc34)o2)cc1`, for which the TGI in assay [1], in assay [2], in assay [3], in assay [4], in assay [5] and in [6] was above 100 µM in each case. Further, the TGI in assay [7], in assay [8] and in assay [9] was above 100 µM each time.

As to `CCOC(=O)NC(=O)c1cn(C2CCCCC2)c(=O)n(C)c1=O`, the TGI in assay [1], in [2], in assay [3], in assay [4], in [5] and in [6] was above 100 µM each time. Besides, the TGI in [7], in assay [8] and in [9] was above 100 µM each time.

Take `COc1nc(NC2OC(COC(C)=O)C(OC(C)=O)C(OC(C)=O)C2OC(C)=O)c(N=C(C)C(C)=O)c(=O)n1C` (stereo not given): the TGI in [1], in assay [2], in assay [3], in assay [4], in assay [5] and in assay [7] was above 100 µM throughout. The TGI in assay [8] and in assay [9] was above 100 µM in each case.

Regarding `CSc1nc2c(nc(N)n2C2OC(CO)C(O)C(O)C2O)c(=O)[nH]1` (stereo not given), the TGI in [1], in [2], in [3], in assay [4], in assay [5] and in [6] was above 100 µM each time. Also, the TGI in [7], in assay [8] and in assay [9] was above 100 µM each time.

As to `CC(=O)N(N=O)c1ccc(N(N=O)C(C)=O)cc1`, the TGI in [1], in assay [2], in assay [3], in [4], in assay [5] and in assay [6] was above 100 µM each time. For the same molecule, the TGI in [7], in assay [8] and in assay [9] was above 100 µM each time.
